Source: patent US5041581A (priority 1986, dated 1991)

Columns and labels:
L1210 cells = test: In vitro growth inhibition of L1210 leukemic cells (96 hours, Coulter Counter); type: cell-based, murine; conditions: footnote of Table 5; 5760 min
Method: Four ml of cell suspension were added to culture tubes and the appropriate concentration of free PT or L-PT was added (from 0.01 micro g/ml to 10 micro g/ml final concentration). After 96 hours, the cell concentration of control and experimental cultures were calculated with a Coulter Counter (Coulter Electronics, Hialeah, FLA) and the percent inhibition calculated. The following preparations were tested: free PT, DMPG, DMPC:DMPG 7:3, DMPG-PT and DMPC:DMPG 7:3-PT.

[1] = system: liver metastases of M5076 reticulosarcoma; test: Treatment of established liver metastases of mouse M5076 reticulosarcoma; type: in vivo, mouse (C57BL/6); conditions: for No. Liver Metastases, mean ± SD: day 30, 7.5 mg/kg days 8, 12, 16, 10^5 cells iv, 7.5 mg/kg
Method: Animals were treated on days 8, 12, and 16 with
Treated animals were sacrificed on day 30,
Animals were treated on days 4, 8, and 12 with
Treated animals were sacrificed on day 45,

[2] = MLV, 48 hours in 0.9% NaCl solution; cited from earlier work
[3] = system: liver metastases of M5076 reticulosarcoma; test: Prophylaxis of liver metastases of mouse M5076 reticulosarcoma; type: in vivo, mouse (C57BL/6); conditions: day 21, 10 mg/kg day -1, 10^4 cells iv
From the text: NeodecanoatoRacemic-DACH. Animals were inoculated on day 0 with 10^4
M5076 cells intravenously.
Treated animals were sacrificed on day 21, the livers dissected,
placed in Bouin's fixative, and the number of tumor colonies counted.

L1210 mouse leukemia = test: In vivo antitumor activity against L1210 mouse leukemia (L1210-BDF1 mouse model); set-up: species or system BDF1 mice
Method: BDF1 mice were purchased from Charles River (Wilmington, MA). Groups of 6-8 mice weighing 18-22 gm were inoculated ip with 1×10^6 L1210 leukemia cells on day 0. L1210 cells were kept in DBA2 mice were weekly passages between the different experiments. All L-PT preparations were injected ip in volumes of 0.1 to 0.3 ml 24 hours after tumor inoculation. Two different schedules of administration were used: a single injection on day 1 or an injection on days 1, 5 and 9 (multiple). […] Clinical behavior and survival times were monitored until all animals had died. Results were expressed as % T/C (median survival time of treated mice/median survival time of control mice ×100) and number of long-term survivors. Mice living more than 30 days and more than 60 days were considered to be long-term survivors for the single and multiple injection schedule respectively. All L-PT preparations tested for antitumor activity were prepared under sterile conditions on the same day of the experiment.
The antitumor activity against L-1210 murine leukemia of the different L-PT analogs was assessed in an L-1210-BDF, mouse model (tumor inoculation day 0, treatment day 1, ip) as described earlier herein.
These liposome-encapsulated compounds were tested to determine their optimal dose and effectiveness as inhibitors of in vivo tumor growth as described in Example 12.

N.N.[Cl][Pt][Cl] [CDDP, Cis-platinum, reference compound]
CDDP ID50 (L1210 cells): 0.1 micro g/ml
No. Liver Metastases, mean ± SD ([1]; listed as Cis-platinum): 114 ± 38
No. Liver Metastases, mean ± SD ([1]; listed as cis-platinum): 114 ±38
animals with 175 or more liver metastases ([1]; day 45, 7.5 mg/kg days 4, 8, 12): 4/6
animals that died before day 45 ([1]; groups of 6, days 4, 8, and 12): Two
stability [2]: 75%
No. Liver Metastases, mean ± SD ([3]; listed as Cis-platinum): 256 ± 54
No. Liver Metastases, mean ± SD ([3]; listed as cis-platinum): 256 ±54
% T/C (L1210 mouse leukemia; 7.5 mg/kg × 3 ip, days 1, 5 and 9): 253%
% T/C (L1210 mouse leukemia; 10 mg/kg ip day 1, Exp. 1): 167%
% T/C (L1210 mouse leukemia; 10 mg/kg ip day 1, Exp. 3): 189%
Number of Survivors on Day 30 (L1210 mouse leukemia; 10 mg/kg ip day 1, Exp. 3): 1/6
% T/C (L1210 mouse leukemia; 10 mg/kg ip day 1, dissolved in saline (Table 8)): 175%
% T/C, mean (L1210 mouse leukemia; 10 mg/kg, single ip dose, means of three experiments): 178%
Long-term survivors (L1210 mouse leukemia; single ip dose, more than 30 days): one or two mice of six
